Earlier results on 1 molecule are cited in patent US4361545A (Rowell Laboratories, Inc., priority 1981, dated 1982).

As to `Cn1c(=O)c2[nH]cnc2n(C)c1=O` [theophylline], the solubility result is listed as “low to moderate solubility”.
